Assay results reported in patent US7671251B2, “In vivo assay for neurite outgrowth in zebrafish and its application in drug screening” (Academia Sinica, priority 2005, dated 2010).

What was measured:
PC12D cells = PC12D cells (Li et al., 2004); cited from earlier work
[1] = tested on: NGF-induced neurite outgrowth; details: Feng et al., 2004; cited from earlier work
[2] = tested on: fluorescent blood vessels; details: transgenic fluorescent embryos (Parng et al., 2002); cited from earlier work
[3] = tested on: HBNF-induced neurite outgrowth; test: modified in vivo neurite outgrowth assay in zebrafish embryos, inhibition by injected heparin; details: heparin injected into zebrafish embryo at two- or four-cell stage; data not shown
From the text: As mentioned above, we modified the in vivo neurite outgrowth assay in zebrafish embryos to investigate the inhibitory effect of heparin or heparan sulfate on HBNF-induced neurite outgrowth by further injection of different dosage of heparin or heparan sulfate into zebrafish embryo at two- or four-cell stage. […] Therefore, the modified assay system also can be used to compare the inhibitory or enhancing effect of HBNF/PTN-induced neurite outgrowth in vivo by heparin and its modified forms, N-syndecan-derived saccharides, and other glycosaminoglycans.

cultured neurons = cultured neurons / neuronal cells (Raulo et al., 1994; Kinnunen et al., 1996; Rauvala et al., 1997); cited from earlier work
[4] = tested on: neuro2A neuroblastoma cells; details: Hiwasa et al., 1997; cited from earlier work
[5] = infused directly in putamen (Gill et al., 2003); cited from earlier work
[6] = tested on: GFP-labeled neurons in zebrafish embryos; test: in vivo neurite outgrowth promotion assay, expression construct coinjected with pHuC-GFP into zebrafish embryos; design: species or system Zebrafish (Danio rerio); details: expression construct coinjected with pHuC-GFP at one-cell stage; observed at 48 or 72 hpf
Procedure: The expression construct pcDNA-HBNF-HA and pHuC-GFP (panels 2, 5-7) were coinjected into zebrafish embryos at 1-cell stage. Similar injection of pHuC-GFP alone (panel 1) was used as control. Zebrafish embryos at 72 h postfertilization with GFP fluorescence were selected for image analysis. Embryos are shown as lateral view with anterior to the left. Experiments were repeated at least three times and at least 100 fertilized eggs were used for injection of expression constructs at each time. Four representative patterns with significant enhancement of neurite outgrowth (panels 2, 5-7) were shown. Images of bright field and fluorescence were merged and shown in panels 1, 2, and 5-7, while fluorescence images only in panels 3, 4, 8-10. Higher magnification of two regions marked with yellow boxes in panel 2 was shown in panel 3 and 4, respectively. N, notochord; DF, dorsal fin; VF, ventral fin. Scale bars represent 100 μm.
The expression construct pcDNA-NGF-HA and pHuC-GFP were coinjected into zebrafish embryos at 1-cell stage. Similar injection of pHuC-GFP alone was used as control. Zebrafish embryos at 72 hpf with GFP fluorescence were selected for image analysis. Embryos are shown as lateral view with anterior to the left. Images of bright field and fluorescence were merged and shown in panel 1, while fluorescence images only in panel 2. Higher magnification of the head region and tail region with significant neurite outgrowth in panel 2 was shown in panels 3 and 4, respectively.
The expression construct pGFAP-GDNF-HA and pHuC-GFP were coinjected into zebrafish embryos at 1-cell stage. Similar injection of pHuC-GFP alone was used as control. Zebrafish embryos at 48 hpf with GFP fluorescence were selected for image analysis. […] Images of bright field and fluorescence were merged and shown in panel 1, while fluorescence images only in panel 2. […]
Zebrafish (Danio rerio) were maintained at 28° C. on a 14 h-light/10 h-dark cycle. Embryos were incubated at 28° C. and different developmental stages were determined according to the description in Zebrafish Book (Westerfield, 1995). […]

PC12 cells = test: neurite outgrowth in PC12 cells transfected with pcDNA-HBNF-HA; assay type: cell-based, rat; details: transfected HBNF cDNA under CMV promoter, without NGF stimulation, 72 h posttransfection

Molecule: CC(=O)O[C@@H]1[C@@H](O)[C@H](C)O[C@@H](OC[C@H]2O[C@@H](Oc3cc(O)c4c(=O)cc(-c5ccc(O)cc5)oc4c3)[C@H](O)[C@@H](O)[C@@H]2O)[C@@H]1O [Compound 2, apigenin 7-O-alpha-L-3-O-acetylrhamnopyranosyl-(1→6)-beta-D-glucopyranoside]
- enhancing activity of nerve growth factor-mediated neurite outgrowth (PC12D cells): enhancing activity

Molecule: CC(=O)O[C@@H]1[C@@H](O)[C@H](C)O[C@@H](OC[C@H]2O[C@@H](Oc3cc(O)c4c(=O)cc(-c5ccc(O)cc5)oc4c3)[C@H](O)[C@@H](O)[C@@H]2O)[C@@H]1OC(C)=O [Compound 3, apigenin 7-O-alpha-L-2,3-di-O-acetylrhamnopyranosyl-(1→6)-beta-D-glucopyranoside]
- enhancing activity of nerve growth factor-mediated neurite outgrowth (PC12D cells): enhancing activity

Molecule: COC(=O)[C@]1(O)C[C@H]2O[C@]1(C)n1c3ccc(O)cc3c3c4c(c5c6ccccc6n2c5c31)C(=O)NC4=O [Indocarbazostatin C, Indocarbazostatins C]
- inhibition of NGF-induced neurite outgrowth [1]: inhibitors of NGF-induced neurite outgrowth

Molecule: COC(=O)[C@]1(O)C[C@H]2O[C@]1(C)n1c3ccc(O)c(N)c3c3c4c(c5c6ccccc6n2c5c31)C(=O)NC4=O [Indocarbazostatin D]
- inhibition of NGF-induced neurite outgrowth [1]: inhibitors of NGF-induced neurite outgrowth

Molecule: Cc1[nH]c(/C=C2\C(=O)Nc3ccccc32)c(C)c1CCC(=O)O [SU-6668]
- inhibition of angiogenesis [2]: inhibit angiogenesis

Molecule: heparin
- inhibitory effect on HBNF-induced neurite outgrowth [3]: inhibit HBNF-induced neurite outgrowth

Molecule: low molecular weight heparin
- inhibition of HBNF/PTN-induced neurite outgrowth (cultured neurons): more potent inhibition

B1: recombinant GDNF: recombinant glial-derived neurotrophic factor (Hiwasa et al., 1997) (protein, UniProt P39905 78-211, looked up)
Glial cell line-derived …: SPDKQMAVLPRRERNRQAAAANPENSRGKGRRGQRGKNRGCVLTAIHLNVTDLGLGYETKEELIFRYCSGSCDAAETTYDKILKNLSRNRRLVSDKVGQACCRPIAFDDDLSFLDDNLVYHILRKHSAKRCGCI
- neurite outgrowth of neuro2A neuroblastoma cells [4]: induce neurite outgrowth

B2: GDNF: glial-derived neurotrophic factor infused directly in putamen in a clinical trial (protein, UniProt P39905 78-211, looked up)
Glial cell line-derived …: SPDKQMAVLPRRERNRQAAAANPENSRGKGRRGQRGKNRGCVLTAIHLNVTDLGLGYETKEELIFRYCSGSCDAAETTYDKILKNLSRNRRLVSDKVGQACCRPIAFDDDLSFLDDNLVYHILRKHSAKRCGCI
- side-effects [5]: does not have significant side-effects
- treatment effect in Parkinson disease [5]: effective treatment for Parkinson disease

B3: zebrafish NGF: zebrafish nerve growth factor expressed from pCMV-NGF-HA (protein, UniProt Q6YBR5 77-194, looked up)
Nerve growth factor: KAGPPQHRGVYSVCESISHWEGNKTKATDITGNEVTVLPDVIINNSKKKQYFFETTCSSGRTGGSGCLGIDARHWNSYCTNSHTFVRALTSFKNLVAWRLIRINVACVCVLSRKSWRA
modifications: HA tag
notes: zebrafish nerve growth factor expressed from pCMV-NGF-HA
- enhancement of neurite outgrowth in zebrafish embryos [6]: induce extensive neurite outgrowth

B4: zebrafish GDNF: zebrafish glial-derived neurotrophic factor expressed in glia cells from pGFAP-GDNF-HA (protein, UniProt Q98TU0 90-235, looked up)
Glial cell line-derived …: SSDVEPQMKRDRVRQKAAANTEKSGGRGRGERKRSRGRARSRDDRVKGQGRGCLLKEIHLNVTDLDLGYRTKEELIFRYCSGPCHDAETNYDKILNNLTHNKKLDKDTPSRTCCRPIAFDDDISFLDDSLEYHTLKKHSAKKCACV
modifications: HA tag
notes: zebrafish glial-derived neurotrophic factor expressed in glia cells from pGFAP-GDNF-HA
- enhancement of neurite outgrowth in zebrafish embryos [6]: induce extensive neurite outgrowth

B5: zebrafish HBNF: zebrafish heparin-binding neurotrophic factor (SEQ ID NO: 1) expressed from pcDNA-HBNF-HA (protein)
chain: MQQQWVCVALLALLTVTATLADGGKTEKQGKKERKSDCGEWQWSVCVANEGDCGLGIREGTRSGNDCKQTIKTQRCKIPCNWKKQFGGECKYDFQAWGECDSTTGMKTRTGVLKRALMDANCPNTVSATKPCGKPKTKMQDSQKPKRDGKKKERNPTD
modifications: HA tag; Danio rerio
- enhancement of neurite outgrowth in zebrafish embryos [6]: enhance extensive neurite outgrowth
- neurite outgrowth in PC12 cells (PC12 cells): induce significant neurite outgrowth
